Peptide text beside a SMILES is read from it.
Tested on: HLA-DPB1*05:01-positive TF-1 cells
Assay: 51Cr releasing assay with target cells pretreated with granzyme-inhibitor
Format: cell-based, human
Details: target cells pretreated with 100 μM for 2 hours; p<0.05; FIG. 4F
Protocol: To confirm whether the cytotoxic activity of the WT1332-TCR-transduced CD4^+ T-cells was dependent on the granzyme B/perforin pathway, HLA-DPB1*05:01-positive TF-1 cells pretreated with 100 μM of a granzyme-inhibitor, Ac-IETD-Cho, were used as target cells. The HLA-DPB1*05:01-positive TF-1 cells were pretreated with 100 μM of Ac-IETD-Cho or DMSO (control) for 2 hours, then labeled with ^51Cr, and incubated with WT1332-TCR-transduced CD4^+ T-cells, and ^51Cr releasing assay was performed.

Structure (SMILES): CC[C@H](C)[C@H](NC(C)=O)C(=O)N[C@@H](CCC(=O)O)C(=O)N[C@H](C(=O)N[C@H](C=O)CC(=O)O)[C@@H](C)O [Ac-IETD-Cho] (Ac-IETD-aldehyde)
- cytotoxic activity of WT1332-TCR-transduced CD4+ T-cells on pretreated target cells compared with DMSO: markedly lower
